According to ChEMBL document CHEMBL1156032, “Potent small molecule mouse CD22-inhibitors: exploring the interaction of the residue at C-2 of sialic acid scaffold” (Bioorg Med Chem Lett, 2009):

Tests used:
[1] = biological target: T1, B-cell receptor CD22 (Mus musculus, UniProt P35329); test: Binding affinity to mouse CD22 after 1 hr by competition ELISA
T1 sequence (P35329 whole entry): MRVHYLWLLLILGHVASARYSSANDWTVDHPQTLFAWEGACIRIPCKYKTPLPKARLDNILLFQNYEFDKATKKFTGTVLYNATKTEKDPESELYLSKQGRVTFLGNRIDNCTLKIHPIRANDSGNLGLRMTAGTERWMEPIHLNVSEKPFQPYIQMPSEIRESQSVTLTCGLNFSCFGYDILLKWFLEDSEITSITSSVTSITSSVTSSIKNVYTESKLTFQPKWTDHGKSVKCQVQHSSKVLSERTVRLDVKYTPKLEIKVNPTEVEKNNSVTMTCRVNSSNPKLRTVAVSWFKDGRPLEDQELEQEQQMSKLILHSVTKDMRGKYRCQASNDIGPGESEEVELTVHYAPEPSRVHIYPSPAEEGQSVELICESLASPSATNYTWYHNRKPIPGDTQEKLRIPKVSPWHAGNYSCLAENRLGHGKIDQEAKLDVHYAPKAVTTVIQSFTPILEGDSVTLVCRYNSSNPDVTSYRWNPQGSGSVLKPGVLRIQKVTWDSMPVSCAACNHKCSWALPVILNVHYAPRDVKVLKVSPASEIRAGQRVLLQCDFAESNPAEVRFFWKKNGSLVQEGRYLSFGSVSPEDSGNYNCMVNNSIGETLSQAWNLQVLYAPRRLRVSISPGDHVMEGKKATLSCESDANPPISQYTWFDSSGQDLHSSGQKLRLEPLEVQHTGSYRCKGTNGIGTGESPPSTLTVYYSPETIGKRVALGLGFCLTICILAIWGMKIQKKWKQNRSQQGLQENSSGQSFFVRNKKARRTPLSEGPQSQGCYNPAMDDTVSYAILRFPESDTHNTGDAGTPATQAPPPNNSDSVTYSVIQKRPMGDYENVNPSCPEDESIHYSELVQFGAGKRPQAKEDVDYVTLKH

[2] = biological target: T2, B-cell receptor CD22 (Mus musculus) (UniProt P35329); test: Ratio of 9-([…]-4-biphenyl)acetamido-9-deoxy- Neu5Gca2-6GalOMP IC50 to compound IC50 for mouse CD22 after 1 hr by competition ELISA
T2 sequence (whole entry): T1 sequence (P35329 whole entry)

| IC50 [1] [µM] | Ratio IC50 [2] | Compound |
| --- | --- | --- |
|  | 1 | COc1ccc(O[C@@H]2O[C@H](CO[C@]3(C(=O)O)C[C@H](O)[C@H](NC(=O)CO)[C@H]([C@H](O)[C@H](O)CNC(=O)Cc4ccc(-c5ccc(O)cc5)cc4)O3)[C@H](O)[C@H](O)[C@H]2O)cc1 |
| 0.1 | 38.4 | O=C(Cc1ccc(-c2ccc(O)cc2)cc1)NC[C@@H](O)[C@@H](O)[C@@H]1O[C@@](OCc2ccccc2)(C(=O)O)C[C@H](O)[C@@H]1NC(=O)CO |
| 0.19 | 20.2 | O=C(Cc1ccc(-c2ccc(O)cc2)cc1)NC[C@@H](O)[C@@H](O)[C@@H]1O[C@@](OCc2ccc(-c3ccccc3)cc2)(C(=O)O)C[C@H](O)[C@@H]1NC(=O)CO |
| 545 |  | C[Si](C)(C)CCO[C@@H]1O[C@H](CO[C@]2(C(=O)O)C[C@H](O)[C@H](NC(=O)CO)[C@H]([C@H](O)[C@H](O)CO)O2)[C@H](O)[C@H](O)[C@H]1O |
| 305 |  | COc1ccc(O[C@@H]2O[C@H](CO[C@]3(C(=O)O)C[C@H](O)[C@H](NC(=O)CO)[C@H]([C@H](O)[C@H](O)CO)O3)[C@H](O)[C@H](O)[C@H]2O)cc1 |
| 82.9 |  | COc1ccc(O[C@@H]2O[C@H](CO[C@]3(C(=O)O)C[C@H](O)[C@H](NC(=O)CO)[C@H]([C@H](O)[C@H](O)CN)O3)[C@H](O)[C@H](O)[C@H]2O)cc1 |

| Compound | IC50 [1] [µM] | Ratio IC50 [2] |
| --- | --- | --- |
| CC(=O)N[C@@H]1[C@H]([C@H](O)[C@H](O)CO)O[C@@](OC[C@H]2O[C@@H](OCC[Si](C)(C)C)[C@H](O)[C@@H](O)[C@H]2O)(C(=O)O)C[C@@H]1O | > 1000 |  |
